Test results reported in patent US20230247997A1 (published 2023).

SMILES	melting point
COc1nc(-c2ccc(Cl)cc2)ns1	137 to 139 °C
COc1cccc(-c2nsc(OC)n2)c1	73 to 75 °C
COc1nc(-c2ccc([N+](=O)[O-])cc2)ns1	138 to 140 °C
COc1nc(-c2ccccc2)nc(-c2ccccc2)n1	109 to 111 °C
COc1nc(-c2ccc(F)cc2)nc(-c2ccc(F)cc2)n1	173 to 174 °C
COc1nc(-c2ccc(Cl)cc2)nc(-c2ccc(Cl)cc2)n1	192 to 194 °C
COc1cccc(-c2nc(OC)nc(-c3cccc(OC)c3)n2)c1	126 to 128 °C
CCSc1nc(-c2ccc(F)cc2)ns1	35 to 36 °C
CCSc1nc(-c2ccc(Cl)cc2)ns1	44 to 45 °C
CSc1nc(-c2ccc(Cl)cc2)ns1	105 to 107 °C
CCSc1nc(-c2ccc(Br)cc2)ns1	36 to 37 °C
CCSc1nc(-c2ccc(OC)cc2)ns1	54 to 56 °C
CCSc1nc(-c2ccc([N+](=O)[O-])cc2)ns1	103 to 104 °C
CCSc1nc(-c2ccncc2)ns1	49 to 50 °C
CCSc1nc(-c2cnccn2)ns1	60 to 62 °C
CCOC(=O)C=C1N=C(SCC)SN1	128 to 129 °C
CCSC1=NC(=CC(N)=O)NS1	140 to 142 °C
CCSc1nc(OC)ns1	35 to 37 °C
CCSc1nc(N(C)C)ns1	116 to 118 °C
